Test results as given in patent US20240246977A1, “DEGRADATION OF BRUTON'S TYROSINE KINASE (BTK) BY CONJUGATION OF BTK INHIBITORS WITH E3 LIGASE LIGAND AND METHOD OF USE” (BeiGene Switzerland GmbH, priority 2021, published 2024).
Like-named read-outs stand apart in the source and are kept apart here.

Assays:
BTK = BTK (Homo sapiens, UniProt Q06187); test: BTK cell degradation in TMD-8 cells, HTRF assay; assay type: cell-based; design: endogenous in cells; host or cells: TMD-8 cells; settings: 6 h treatment, IC50 (DC50) of BTK degradation
Chain of BTK (Q06187 whole entry): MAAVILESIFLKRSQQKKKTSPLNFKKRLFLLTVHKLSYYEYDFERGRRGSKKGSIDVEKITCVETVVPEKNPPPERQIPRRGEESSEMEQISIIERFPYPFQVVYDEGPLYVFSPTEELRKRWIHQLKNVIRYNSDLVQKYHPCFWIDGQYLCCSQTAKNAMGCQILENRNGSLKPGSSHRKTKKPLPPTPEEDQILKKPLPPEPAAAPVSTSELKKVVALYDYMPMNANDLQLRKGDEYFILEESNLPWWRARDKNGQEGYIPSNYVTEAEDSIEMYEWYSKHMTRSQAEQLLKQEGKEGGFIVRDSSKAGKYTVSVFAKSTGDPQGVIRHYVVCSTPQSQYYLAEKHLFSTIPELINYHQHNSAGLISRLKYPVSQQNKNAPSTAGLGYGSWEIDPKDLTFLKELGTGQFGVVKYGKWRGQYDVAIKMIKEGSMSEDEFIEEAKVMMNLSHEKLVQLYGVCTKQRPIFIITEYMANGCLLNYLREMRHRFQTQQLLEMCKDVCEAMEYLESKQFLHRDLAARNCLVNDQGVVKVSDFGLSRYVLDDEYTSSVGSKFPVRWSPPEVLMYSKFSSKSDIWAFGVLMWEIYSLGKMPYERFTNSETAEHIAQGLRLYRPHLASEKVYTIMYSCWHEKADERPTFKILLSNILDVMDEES
Method: TMD-8 cells were treated with compounds diluted in 0.2% DMSO, dilution was done according to the following protocol: (1) making 500× stock solution in DMSO from 1 mM by 6-fold dilution, total 8 doses were included; (2) making 2× solution in cell culture medium by transferring 0.5 μl 500× stock solution into 125 μl medium; (3) adding 15 μl of 2× solution to cells for incubation of 6 h.
After 6 h treatment, 10 μl 14×lysis buffer was added to each well; the plate was sealed and incubated for 30 min at room temperature on a plate shaker; Once the cells was lysed, 16 μL of cell lysate were transferred to a PE 384-well HTRF detection plate; 4 μL of pre-mixed HTRF antibodies were added to each well; the plate was covered with a plate sealer, and then spinned at 1000 rpm for 1 min, then incubated overnight at room temperature; the results were read on BMG PheraStar with HTRF protocol (337 nm-665 nm-620 nm).
The inhibition (degradation) percentage of the compound was calculated by the following equation: Inhibition percentage of Compound=100−100×(Signal-low control)/(High control-low control), wherein signal=each test compound group
High control=Cell group with added DMSO and without compound, indicating microplate readings without BTK degradation;
Dmax is the maximum percentage of inhibition (degradation).
The IC50 (DC50) value of a compound can be obtained by fitting the following equation
Y=Bottom+(TOP−Bottom)/(1+((IC50/X)^hillslope))
(§1) wherein, X and Y are known values, and IC50, Hillslope, Top and Bottom are the parameters obtained by fitting with software. Y is the inhibition percentage (calculated from the equation), X is the concentration of the compound; IC50 is the concentration of the compound when the 50% inhibition is reached. The smaller the IC50 value is, the stronger the inhibitory ability of the compound is. Vice versa, the higher the IC50 value is, the weaker the ability the inhibitory ability of the compound is; Hillslope represents the slope of the fitted curve, generally around 1*; Bottom represents the minimum value of the curve obtained by data fitting, which is generally 0%±20%; Top represents the maximum value of the curve obtained by data fitting, which is generally 100%±20%. The experimental data were fitted by calculating and analyzing with Dotmatics data analysis software.

HEK-293 cells = test: HEK-293 cytotoxicity detection (CellTiter-Glo); assay type: cell-based; settings: 72 h incubation, CellTiter-Glo luminescence, read-out: HEK293
Method: HEK-293 cells were treated with compounds diluted in 0.2% DMSO, dilution was done according to the following protocol: (1) making 500× stock solution in DMSO from 5 mM by 4-fold dilution, total 8 doses were included; (2) making 2× solution in cell culture medium by transferring 0.5 ul 500× stock solution into 125 ul medium; (3) adding 50 ul of 2× solution to cells for incubation of 72 h.
25 μl of the CellTiter-Glo®Reagent [(Promega)—Cat No. G7572] was added to each well in the 96-well plate. The contents were mixed for 2 minutes on an orbital shaker to induce cell lysis. The plate was then allowed to incubate at room temperature for 10 minutes to stabilize luminescent signal. Luminescence was recorded on BMG PheraStar with luminescence protocol.
The inhibition percentage of the compound was calculated by the following equation: Inhibition percentage of Compound=100−100×(Signal-low control)/(High control-low control), wherein signal=each test compound group
High control=Cell group with added DMSO and without compound, indicating cells proliferation with no inhibition;
Imax is the maximum percentage of inhibition.
The IC50 value of a compound can be obtained by fitting the following equation
as §1, with “Wherein,” for “wherein,”

DC50 (BTK) [nM] | Compound | IC50 (HEK-293 cells) [nM] | IC50 (HEK-293 cells; Homo sapiens, 72 h) [nM]
10.6 | Cc1cccc(NC(=O)c2ncc(-c3nn4c(c3C(N)=O)Nc3ccc(N5CCN(C6CC(c7ccc(C8CCC(=O)NC8=O)cc7)C6)CC5)cc3CC4)cc2C)n1 (stereo in doubt) [Example B35, (S)-7-(4-(3-(4-(2,6-dioxopiperidin-3-yl)phenyl)cyclobutyl)piperazin-1-yl)-2-(5-methyl-6-((6-methylpyridin-2-yl)carbamoyl)pyridin-3-yl)-9,10-dihydro-4H-benzo[d]pyrazolo[1,5-a][1,3]diazepine-3-carboxamide] | 97.4 | –
3 | NC(=O)c1c(-c2ccc(Oc3ccccc3)cc2)nn2c1Nc1ccc(NC(=O)C3CCN(c4ccc5c(c4)C(=O)N(C4CCC(=O)NC4=O)C5=O)CC3)cc1CC2 (stereo not drawn) [Example A1, 7-(1-(2-(2,6-dioxopiperidin-3-yl)-1,3-dioxoisoindolin-5-yl)piperidine-4-carboxamido)-2-(4-phenoxyphenyl)-9,10-dihydro-4H-benzo[d]pyrazolo[1,5-a][1,3]diazepine-3-carboxamide] | – | 417
1.85 | NC(=O)c1c(-c2ccc(Oc3ccccc3)cc2)nn2c1Nc1ccc(NC(=O)COCCOCCOCCOCCNc3cccc4c3C(=O)N(C3CCC(=O)NC3=O)C4=O)cc1CC2 (stereo not drawn) [Example A2, 7-(14-((2-(2,6-dioxopiperidin-3-yl)-1,3-dioxoisoindolin-4-yl)amino)-3,6,9,12-tetraoxatetradecanamido)-2-(4-phenoxyphenyl)-9,10-dihydro-4H-benzo[d]pyrazolo[1,5-a][1,3]diazepine-3-carboxamide] | – | 557
20.6 | NC(=O)c1c(-c2ccc(Oc3ccccc3)cc2)nn2c1Nc1ccc(NCC3CCN(c4ccc5c(c4)C(=O)N(C4CCC(=O)NC4=O)C5=O)CC3)cc1CC2 (stereo not drawn) [Example A3, 7-(((1-(2-(2,6-dioxopiperidin-3-yl)-1,3-dioxoisoindolin-5-yl)piperidin-4-yl)methyl)amino)-2-(4-phenoxyphenyl)-9,10-dihydro-4H-benzo[d]pyrazolo[1,5-a][1,3]diazepine-3-carboxamide] | – | > 10000
27.9 | NC(=O)c1c(-c2ccc(Oc3ccccc3)cc2)nn2c1Nc1cc(N3CCN(CC4CCN(c5ccc6c(c5)C(=O)N(C5CCC(=O)NC5=O)C6=O)CC4)CC3)ccc1CC2 (stereo not drawn) [Example A15, 6-(4-((1-(2-(2,6-dioxopiperidin-3-yl)-1,3-dioxoisoindolin-5-yl)piperidin-4-yl)methyl)piperazin-1-yl)-2-(4-phenoxyphenyl)-9,10-dihydro-4H-benzo[d]pyrazolo[1,5-a][1,3]diazepine-3-carboxamide] | – | –
9.71 | NC(=O)c1c(-c2ccc(Oc3ccccc3)cc2)nn2c1Nc1ccc(NCC3CCN(c4cc5c(cc4F)C(=O)N(C4CCC(=O)NC4=O)C5=O)CC3)cc1CC2 (stereo not drawn) [Example A16, 7-(((1-(2-(2,6-dioxopiperidin-3-yl)-6-fluoro-1,3-dioxoisoindolin-5-yl)piperidin-4-yl)methyl)amino)-2-(4-phenoxyphenyl)-9,10-dihydro-4H-benzo[d]pyrazolo[1,5-a][1,3]diazepine-3-carboxamide] | – | –
14.4 | NC(=O)c1c(-c2ccc(Oc3ccccc3)cc2)nn2c1Nc1cc(C(=O)NC3CCN(CC4CCN(c5cc6c(cc5F)C(=O)N(C5CCC(=O)NC5=O)C6=O)CC4)CC3)ccc1CC2 (stereo not drawn) [Example A17, N^6-(1-((1-(2-(2,6-dioxopiperidin-3-yl)-6-fluoro-1,3-dioxoisoindolin-5-yl)piperidin-4-yl)methyl)piperidin-4-yl)-2-(4-phenoxyphenyl)-9,10-dihydro-4H-benzo[d]pyrazolo[1,5-a][1,3]diazepine-3,6-dicarboxamide] | – | –
17.9 | NC(=O)c1c(-c2ccc(Oc3ccccc3)cc2)nn2c1Nc1cc(C(=O)N3CCN(CC4CCN(c5ccc6c(c5)C(=O)N(C5CCC(=O)NC5=O)C6=O)CC4)CC3)ccc1CC2 (stereo not drawn) [Example A19, 6-(4-((1-(2-(2,6-dioxopiperidin-3-yl)-1,3-dioxoisoindolin-5-yl)piperidin-4-yl)methyl)piperazine-1-carbonyl)-2-(4-phenoxyphenyl)-9,10-dihydro-4H-benzo[d]pyrazolo[1,5-a][1,3]diazepine-3-carboxamide] | – | –
1.31 | NC(=O)c1c(-c2ccc(Oc3ccccc3)cc2)nn2c1Nc1ccc(N3CCN(CCC4CCN(c5ccc(N6CCC(=O)NC6=O)cc5)CC4)CC3)cc1CC2 [Example A22, 7-(4-(2-(1-(4-(2,4-dioxotetrahydropyrimidin-1(2H)-yl)phenyl)piperidin-4-yl)ethyl)piperazin-1-yl)-2-(4-phenoxyphenyl)-9,10-dihydro-4H-benzo[d]pyrazolo[1,5-a][1,3]diazepine-3-carboxamide] | – | –
16.3 | CC(C)(C)c1ccc(Oc2ccc(-c3nn4c(c3C(N)=O)Nc3ccc(C5CCN(CCC6CCN(c7ccc(N8CCC(=O)NC8=O)cc7)CC6)CC5)cc3CC4)cc2)cc1 [Example A29, 2-(4-(4-(tert-butyl)phenoxy)phenyl)-7-(1-(2-(1-(4-(2,4-dioxotetrahydropyrimidin-1(2H)-yl)phenyl)piperidin-4-yl)ethyl)piperidin-4-yl)-9,10-dihydro-4H-benzo[d]pyrazolo[1,5-a][1,3]diazepine-3-carboxamide] | – | –
8.05 | Cc1cccc(NC(=O)c2ccc(-c3nn4c(c3C(N)=O)Nc3ccc(N5CCN(CC6CCN(c7ccc(CN8CCC(=O)NC8=O)cc7)CC6)CC5)cc3CC4)c(F)c2C)n1 [Example B69, 7-(4-((1-(4-((2,4-dioxotetrahydropyrimidin-1(2H)-yl)methyl)phenyl)piperidin-4-yl)methyl)piperazin-1-yl)-2-(2-fluoro-3-methyl-4-((6-methylpyridin-2-yl)carbamoyl)phenyl)-9,10-dihydro-4H-benzo[d]pyrazolo[1,5-a][1,3]diazepine-3-carboxamide] | – | –
8.66 | Cc1cccc(NC(=O)c2ccc(-c3nn4c(c3C(N)=O)Nc3ccc(N5CCN(CC6CCN(c7cccc(CN8CCC(=O)NC8=O)c7)CC6)CC5)cc3CC4)c(F)c2C)n1 [Example B70, 7-(4-((1-(3-((2,4-dioxotetrahydropyrimidin-1(2H)-yl)methyl)phenyl)piperidin-4-yl)methyl)piperazin-1-yl)-2-(2-fluoro-3-methyl-4-((6-methylpyridin-2-yl)carbamoyl)phenyl)-9,10-dihydro-4H-benzo[d]pyrazolo[1,5-a][1,3]diazepine-3-carboxamide] | – | –
– | Cc1c(C(=O)Nc2cn(C)cn2)ccc(-c2nn3c(c2C(N)=O)Nc2ccc(N4CCN(CCc5cc(F)c([C@H]6CCC(=O)NC6=O)c(F)c5)CC4)cc2CC3)c1F [Example B89, (R)-7-(4-(4-(2,6-dioxopiperidin-3-yl)-3,5-difluorophenethyl)piperazin-1-yl)-2-(2-fluoro-3-methyl-4-((1-methyl-1H-imidazol-4-yl)carbamoyl)phenyl)-9,10-dihydro-4H-benzo[d]pyrazolo[1,5-a][1,3]diazepine-3-carboxamide] | – | > 10000
1.7 | Cc1c(C(=O)Nc2cscn2)ccc(-c2nn3c(c2C(N)=O)Nc2ccc(N4CCN(CCc5cc(F)c([C@H]6CCC(=O)NC6=O)c(F)c5)CC4)cc2CC3)c1F [Example B95, (R)-7-(4-(4-(2,6-dioxopiperidin-3-yl)-3,5-difluorophenethyl)piperazin-1-yl)-2-(2-fluoro-3-methyl-4-(thiazol-4-ylcarbamoyl)phenyl)-9,10-dihydro-4H-benzo[d]pyrazolo[1,5-a] [1,3]diazepine-3-carboxamide] | – | –
